Source: the supplement of paper PMC10331698
± gives the standard deviation of the averaged measurements.

Assays:
Assay in all cases: level (log10 ratio to DMSO vehicle control); higher = higher biomarker level / cell amount than vehicle control
[1] = compound: COC(=O)C(F)(F)C(F)(F)OC(F)(C(F)(F)F)C(F)(F)OC(F)=C(F)F [Methyl perfluoro(3-(1-ethenyloxypropan-2-yloxy)propanoate)]; details: in DMSO
Description: (§1)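 BioMAP Diversity Plus panel of 12 human primary cell co-culture systems (3C, 4H, LPS, SAg, BT, BF4T, BE3C, CASM3C, HDF3CGF, KF3CT, MyoF, Mphg). Compounds were added 1 h before stimulation and left for 24 h (MyoF 48 h; BT 72 h for soluble read-outs or 6 d for IgG). Biomarkers were read by ELISA, cytotoxicity by SRB, PBMC viability and proliferation by Alamar Blue. Each well value was divided by the mean of 8 DMSO control wells on the same plate and log10 transformed; duplicate blinded samples were tested at 4 concentrations.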

[2] = compound: FC(F)(F)C(F)(F)C(F)(F)C(F)(F)C(F)(F)C(F)(F)C(F)(F)I [1-Iodopentadecafluoroheptane]; details: in DMSO
Description: as §1

[3] = compound: FC(F)(F)C(F)(F)CNCC(F)(F)C(F)(F)F [Bis(1H,1H-perfluoropropyl)amine]; details: in DMSO
Description: as §1

[4] = compound: O=S(=O)(O)CCC(F)(F)C(F)(F)C(F)(F)C(F)(F)C(F)(F)C(F)(F)F [6:2 Fluorotelomer sulfonic acid]; details: in DMSO
Description: as §1

[5] = compound: NS(=O)(=O)C(F)(F)C(F)(F)C(F)(F)C(F)(F)C(F)(F)C(F)(F)F [Perfluorohexanesulfonamide]; details: in DMSO
Description: as §1

Nonafluoropentanamide = compound: NC(=O)C(F)(F)C(F)(F)C(F)(F)C(F)(F)F [Nonafluoropentanamide]; details: in DMSO
Description: as §1

[6] = compound: C=CC(=O)OCC(F)(F)C(F)(F)C(F)(F)COC(=O)C=C [1H,1H,5H,5H-Perfluoro-1,5-pentanediol diacrylate]; details: 6700 nM; in DMSO
Description: as §1

Hexafluoroamylene glycol = compound: OCC(F)(F)C(F)(F)C(F)(F)CO [Hexafluoroamylene glycol]; details: in DMSO
Description: as §1

Row | Test System | level (log10) ([1]; 6700 nM) | level (log10) ([1]; 20000 nM) | level (log10) ([2]; 6700 nM) | level (log10) ([2]; 20000 nM) | level (log10) ([3]; 6700 nM) | level (log10) ([3]; 20000 nM) | level (log10) ([3]; 60000 nM) | level (log10) ([4]; 6700 nM) | level (log10) ([4]; 20000 nM) | level (log10) ([4]; 60000 nM) | level (log10) ([5]; 6700 nM) | level (log10) ([5]; 20000 nM) | level (log10) ([5]; 60000 nM) | level (log10) (Nonafluoropentanamide; 6700 nM) | level (log10) (Nonafluoropentanamide; 20000 nM) | level (log10) (Nonafluoropentanamide; 60000 nM) | level (log10) [6] | level (log10) (Hexafluoroamylene glycol; 6700 nM) | level (log10) (Hexafluoroamylene glycol; 20000 nM) | level (log10) (Hexafluoroamylene glycol; 60000 nM)
1 | 4H:SRB | -0.0015 ± 0.00071 | 0.007 ± 0.014 | 0.0015 ± 0.0092 | 0.0125 ± 0.005 | -0.0245 ± 0.013 | 0 ± 0.017 | 0.0015 ± 0.013 | -0.0015 ± 0.0021 | 0.0035 ± 0.018 | -0.004 ± 0.027 | -0.01 ± 0.0085 | -0.028 ± 0.0099 | -0.101 ± 0.0014 | -0.0055 ± 0.00071 | -0.0055 ± 0.011 | 0.0055 ± 0.021 | -0.0105 ± 0.019 | -0.0055 ± 0.0035 | -0.004 ± 0.0071 | 0.005 ± 0.02
2 | KF3CT:SRB | 0.005 ± 0.013 | 0.0125 ± 0.0078 | 0.0015 ± 0.0064 | 0.005 ± 0.0057 | -0.007 ± 0.0057 | -0.007 ± 0.0014 | 0.0095 ± 0.011 | -0.004 | 0.0005 ± 0.0035 | 0.006 ± 0.016 | 0 ± 0.0099 | -0.008 ± 0.0028 | -0.014 ± 0.0042 | -0.001 | -0.004 ± 0.0071 | 0.0085 ± 0.015 | -0.01 ± 0.0085 | -0.0045 ± 0.00071 | -0.005 ± 0.0057 | 0.0025 ± 0.0078
3 | HDF3CGF:TIMP-1 | 0.0565 ± 0.011 | 0.117 ± 0.021 | -0.0185 ± 0.0021 | -0.024 ± 0.0042 | 0 ± 0.0099 | -0.0525 ± 0.049 | 0.011 ± 0.0071 | 0.0225 ± 0.08 | -0.0045 ± 0.076 | 0.0175 ± 0.13 | 0.0235 ± 0.0078 | 0.048 ± 0.021 | 0.05 ± 0.017 | 0.0155 ± 0.059 | 0.0025 ± 0.05 | 0.0015 ± 0.0064 | -0.245 ± 0.011 | -0.0155 ± 0.05 | -0.0145 ± 0.06 | -0.017 ± 0.1
4 | CASM3C:PAI-I | -0.0015 ± 0.0035 | -0.0005 ± 0.012 | -0.013 ± 0.011 | 0.0075 ± 0.011 | -0.0075 ± 0.0078 | -0.009 ± 0.0042 | 0.005 ± 0.025 | -0.001 ± 0.023 | -0.0025 ± 0.015 | 0 ± 0.0099 | -0.0045 ± 0.011 | -0.008 ± 0.0042 | 0.004 ± 0.0071 | -0.008 ± 0.024 | -0.0065 ± 0.0064 | 0.0105 ± 0.0064 | 0.002 ± 0.0042 | -0.0035 ± 0.015 | 0.017 ± 0.031 | 0.006 ± 0.0085
5 | lMphg:IL-1alpha | 0.0435 ± 0.035 | 0.118 ± 0.0021 | 0.03 ± 0.045 | 0.014 ± 0.0085 | -0.025 ± 0.0071 | -0.031 ± 0.0057 | 0.0295 ± 0.059 | 0.0395 ± 0.05 | 0.0235 ± 0.035 | 0.0215 ± 0.039 | 0.019 ± 0.052 | 0.114 ± 0.016 | 0.148 ± 0.0028 | 0.0035 ± 0.047 | -0.0325 ± 0.047 | -0.017 ± 0.048 | 0.045 ± 0.024 | 0.005 ± 0.02 | 0.015 ± 0.027 | 0.029 ± 0.061
6 | KF3CT:MMP-9 | -0.0375 ± 0.0021 | -0.054 ± 0.0071 | -0.05 ± 0.11 | -0.0495 ± 0.056 | -0.024 ± 0.0071 | -0.013 ± 0.035 | 0.001 ± 0.042 | -0.0285 ± 0.019 | 0.0085 ± 0.018 | 0.026 ± 0.0028 | -0.015 ± 0.02 | -0.039 ± 0.03 | -0.093 ± 0.021 | -0.039 ± 0.027 | -0.0195 ± 0.0021 | -0.0245 ± 0.011 | -0.0525 ± 0.043 | -0.0145 ± 0.005 | -0.011 ± 0.025 | -0.0155 ± 0.0035
7 | BE3C:MMP-9 | -0.041 ± 0.038 | -0.004 ± 0.0057 | -0.014 ± 0.035 | -0.0465 ± 0.015 | -0.026 ± 0.0042 | -0.0175 ± 0.011 | 0.009 ± 0.042 | -0.004 ± 0.021 | -0.0045 ± 0.0078 | 0.016 ± 0.021 | -0.0585 ± 0.015 | -0.0435 ± 0.005 | -0.131 ± 0.028 | -0.0405 ± 0.03 | -0.026 ± 0.0071 | -0.0095 ± 0.005 | -0.0485 ± 0.0078 | -0.014 ± 0.0099 | -0.01 ± 0.0057 | 0.008 ± 0.033
